Data as given in US8834549B2, “One-step phosphorylcholine-linked polymer coating and drug loading of stent” (Abbott Laboratories, priority 2007, dated 2014).

Assay: Total drug level on stents after ETO cycles by extraction and HPLC
Format: physicochemical
Conditions: 5 stents with 1 ETO cycle, 5 stents with 3 ETO cycles
Description: Weighed 129 mg of ABT-578, a rapamycin derivative and 280 mg of phosphorylcholine-linked methacrylate terpolymer PC1036 and dissolved them in 10 ml of […] by shaking overnight protected from light. The solution was filtered through a 0.45 micron Teflon filter and the solution was added to the syringe reservoir of a semi-automated spray atomization gun coupled to a lathe-like device designed to hold stents, rotate them and translate them linearly in front of the spray gun. The equipment was programmed to spray enough solution in order to obtain about 10 micrograms of drug per linear mm of stent length, taking into account the losses of solution due to lack of contact with the stent as it is sprayed. After spraying, the stents were allowed to dry in air, followed by packaging them individually in glass vials sealed with an ETO permeable Tyvec membrane. The samples were sent out for ETO sterilization by one or three complete cycles.
Analysis was done of the total drug level from 5 stents that underwent 1 ETO cycle and 5 stents that underwent 3 ETO cycles using standard extraction and HPLC analysis.

stability of drug on stent to ETO cycles (total drug level, 3 cycles vs 1 cycle): stable to 3 ETO cycles
Compound: CO[C@H]1C[C@@H]2CC[C@@H](C)[C@@](O)(O2)C(=O)C(=O)N2CCCC[C@H]2C(=O)O[C@H]([C@H](C)C[C@@H]2CC[C@H](n3cnnn3)[C@H](OC)C2)CC(=O)[C@H](C)/C=C(\C)[C@@H](O)[C@@H](OC)C(=O)[C@H](C)C[C@H](C)/C=C/C=C/C=C/1C [ABT-578]
